The values that follow come from PubChem BioAssay AID651630 (Sanford-Burnham Center for Chemical Genomics, 2012).

One assay has as its system TAG. The assay is described as follows: triacylglycerol accumulation inhibitor potency, dose response, cell-based, panel, Nile Red and DAPI fluorescence, H9c2 (AID 651630).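 Further: cells exposed to compound overnight before fixation and staining.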 The settings on record: H9c2 cells, Nile Red TAG fluorescence, oleic acid.
In another assay the test system is DAPI. The description is as above. The settings on record: H9c2 cells, DAPI nuclear fluorescence (cytotoxicity counter-readout), oleic acid.

Structures are written as SMILES. Calls of active or inactive are those of the source.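 How the source made its calls: active means lipid-stain IC50 at or below a set limit, with nuclear-stain toxicity IC50 at least five times higher; inactive means the rest.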

Usually IC50 stands for the concentration at which inhibition is half-maximal.

As to `COC(=O)c1cc(C(=O)N2CCN(c3ccccc3OC)CC2)cc([N+](=O)[O-])c1`, the figures for the IC50 in the assay on TAG (mean of runs), with TAG (run 1) and with TAG (run 2) were 13.2 µM, 11.8 µM and 14.5 µM, respectively. Further, the IC50 cytotoxicity (DAPI nuclear signal decrease) in the assay with DAPI (mean of runs) was > 25 µM (inactive); in the assay on DAPI (run 1) it was greater than 25 µM; in the assay on DAPI (run 2), greater than 25 µM.
Consider `CCOc1cc(CNC(C)(C)C)ccc1OCC(=O)Nc1cccc(C(F)(F)F)c1`, for which the IC50 in the assay on TAG (mean of runs) is 16.3 µM (inactive); in the assay with TAG (run 1), 15.5 µM; in the assay with TAG (run 2), 17.2 µM. The IC50 cytotoxicity (DAPI nuclear signal decrease) with DAPI (mean of runs) was > 25 µM (inactive); in the assay with DAPI (run 1) it was greater than 25 µM; with DAPI (run 2) it was greater than 25 µM.
As for `COc1cc(NC(=O)Nc2nc(C(N)CCc3ccccc3)cs2)cc(OC)c1OC` (stereo not drawn), the results for the IC50 with TAG (mean of runs), in the assay with TAG (run 1) and with TAG (run 2) were 6.55 µM, 5.15 µM and 7.96 µM, respectively. The IC50 cytotoxicity (DAPI nuclear signal decrease) in the assay with DAPI (mean of runs) was > 25 µM (inactive); with DAPI (run 1) it was greater than 25 µM; in the assay with DAPI (run 2), greater than 25 µM.
`O=C(NCc1nnnn1-c1ccc(F)cc1)c1ccc([N+](=O)[O-])o1`: the IC50 is 18.9 µM (inactive) in the assay with TAG (mean of runs), 21.7 µM in the assay on TAG (run 1) and 16 µM in the assay on TAG (run 2). The results for the IC50 cytotoxicity (DAPI nuclear signal decrease) with DAPI (mean of runs), in the assay on DAPI (run 1) and in the assay with DAPI (run 2) were 11.8 µM (inactive), 11.8 µM and 11.9 µM, respectively.
Consider `Cc1cc(NC(=O)CSc2nc(C(C)C)nc3sc4c(c23)CCC(C)C4)no1` (stereo not drawn), for which the IC50 was > 25 µM (inactive) in the assay with TAG (mean of runs), greater than 25 µM in the assay on TAG (run 1) and greater than 25 µM in the assay with TAG (run 2). The IC50 cytotoxicity (DAPI nuclear signal decrease) in the assay with DAPI (mean of runs) was > 25 µM (inactive); in the assay on DAPI (run 1), greater than 25 µM; in the assay on DAPI (run 2), greater than 25 µM.
On to `Cc1ccc2nc3n(c(=O)c2c1)-c1cc2ccccc2cc1C(=O)NC3Cc1ccc(O)cc1` (stereo not drawn), for which the IC50 in the assay on TAG (run 1) is 24.9 µM; in the assay with TAG (run 2), greater than 25 µM. Besides, the IC50 cytotoxicity (DAPI nuclear signal decrease) in the assay on DAPI (mean of runs) is > 25 µM (inactive); in the assay on DAPI (run 1), greater than 25 µM; in the assay with DAPI (run 2) it was greater than 25 µM.
As for `Cc1ccc(NC(=O)Cn2nnc(-c3ccccc3NC(=O)c3cccs3)n2)cc1`, the results for the IC50 in the assay with TAG (mean of runs), in the assay on TAG (run 1) and in the assay on TAG (run 2) were 5.75 µM, 7.48 µM and 4.02 µM, respectively. Further, the IC50 cytotoxicity (DAPI nuclear signal decrease) in the assay with DAPI (mean of runs) is > 25 µM (inactive); with DAPI (run 1) it was greater than 25 µM; in the assay on DAPI (run 2) it was greater than 25 µM.
As to `Cc1ccc(-c2cc(C(F)F)n3ncc(C(=O)Nc4c(C)nn(Cc5c(Cl)cccc5Cl)c4C)c3n2)cc1`, the IC50 in the assay with TAG (mean of runs) was > 25 µM (inactive); in the assay on TAG (run 1), greater than 25 µM; in the assay with TAG (run 2) it was greater than 25 µM. In addition, the values for the IC50 cytotoxicity (DAPI nuclear signal decrease) with DAPI (mean of runs), in the assay with DAPI (run 1) and in the assay on DAPI (run 2) were > 25 µM (inactive), greater than 25 µM and greater than 25 µM, respectively.
Turning to `CN(C)c1ncnc2c1ncn2C1OC(CO)C(O)C1O` (stereo not drawn), the IC50 in the assay with TAG (mean of runs) was > 25 µM (inactive); in the assay with TAG (run 1), greater than 25 µM; in the assay on TAG (run 2) it was greater than 25 µM. The figures for the IC50 cytotoxicity (DAPI nuclear signal decrease) in the assay on DAPI (mean of runs), in the assay on DAPI (run 1) and in the assay with DAPI (run 2) were 12.8 µM (inactive), 11 µM and 14.5 µM, respectively.
Consider `CNC(=O)c1ccc(-c2sc3nc(N4CCOCC4)c4c(c3c2N)CC(C)(C)OC4)o1`, for which the IC50 with TAG (mean of runs) was 9.7 µM; with TAG (run 1), 13.1 µM; in the assay with TAG (run 2), 6.33 µM. The IC50 cytotoxicity (DAPI nuclear signal decrease) was > 25 µM (inactive) with DAPI (mean of runs), greater than 25 µM with DAPI (run 1) and greater than 25 µM with DAPI (run 2).
On to `COc1ccc(-c2nc3ccc(Cl)cn3c2NC2CCCCC2)cc1SC1CCCCC1`, for which the values for the IC50 in the assay on TAG (mean of runs), in the assay on TAG (run 1) and with TAG (run 2) were 3.44 µM, 2.41 µM and 4.47 µM, respectively. In addition, the IC50 cytotoxicity (DAPI nuclear signal decrease) in the assay with DAPI (run 1) and in the assay with DAPI (run 2) was greater than 25 µM in each case.
Regarding `Cc1ccc(C2C(C=Nc3c(C)n(C)n(-c4ccccc4)c3=O)=C(c3ccccc3)Oc3ccccc32)cc1` (stereo not drawn), the IC50 was 7.41 µM with TAG (mean of runs), 6.56 µM with TAG (run 1) and 8.27 µM in the assay on TAG (run 2). The IC50 cytotoxicity (DAPI nuclear signal decrease) was > 25 µM (inactive) with DAPI (mean of runs), greater than 25 µM with DAPI (run 1) and greater than 25 µM with DAPI (run 2).
As for `CCOC(=O)CSc1cccc2cccnc12`, the IC50 in the assay on TAG (mean of runs) is > 25 µM (inactive); with TAG (run 1), greater than 25 µM; in the assay with TAG (run 2), greater than 25 µM. Moreover, the IC50 cytotoxicity (DAPI nuclear signal decrease) was > 25 µM (inactive) in the assay on DAPI (mean of runs), greater than 25 µM with DAPI (run 1) and greater than 25 µM in the assay on DAPI (run 2).
For `COc1ccc(C2=CC(c3ccc4c(c3)OCO4)c3c(c4ccccc4oc3=O)O2)cc1OC` (stereo not drawn), the IC50 in the assay with TAG (mean of runs) was 18.8 µM (inactive); in the assay on TAG (run 1) it was 20.6 µM; with TAG (run 2), 17 µM. The IC50 cytotoxicity (DAPI nuclear signal decrease) in the assay with DAPI (mean of runs) is > 25 µM (inactive); in the assay on DAPI (run 1) it was greater than 25 µM; with DAPI (run 2), greater than 25 µM.
Consider `CC(=O)O[C@H]1C(=O)[C@]2(C)[C@H]([C@H](OC(=O)c3ccccc3)[C@]3(O)C[C@H](OC(=O)[C@H](O)[C@@H](NC(=O)c4ccccc4)c4ccccc4)C(C)=C1C3(C)C)[C@]1(OC(C)=O)CO[C@@H]1C[C@@H]2O`, for which the IC50 with TAG (mean of runs) was > 25 µM (inactive); in the assay with TAG (run 1) it was greater than 25 µM; in the assay with TAG (run 2), greater than 25 µM. For the same molecule, the values for the IC50 cytotoxicity (DAPI nuclear signal decrease) in the assay with DAPI (mean of runs), in the assay on DAPI (run 1) and in the assay on DAPI (run 2) were > 25 µM (inactive), greater than 25 µM and greater than 25 µM, respectively.
Turning to `CCOC(=O)C1=C(C)N(C[C@@H]2CC[C@@H](Cc3ccc(-c4ccccc4)cc3)O2)C(=O)NC1c1cccc2ccccc12` (stereo partly drawn), the figures for the IC50 in the assay on TAG (mean of runs), in the assay with TAG (run 1) and in the assay on TAG (run 2) were 13.6 µM, 14 µM and 13.2 µM, respectively. Moreover, the IC50 cytotoxicity (DAPI nuclear signal decrease) was > 25 µM (inactive) in the assay on DAPI (mean of runs), greater than 25 µM with DAPI (run 1) and greater than 25 µM in the assay on DAPI (run 2).
For `COc1ccc(C2c3cc4c(cc3OC(N3CCOCC3)C2C)OCO4)c(OC)c1` (stereo not drawn), the IC50 in the assay with TAG (mean of runs) is 10.1 µM; with TAG (run 1) it was 6.4 µM; in the assay with TAG (run 2) it was 13.8 µM. In addition, the IC50 cytotoxicity (DAPI nuclear signal decrease) in the assay on DAPI (mean of runs) is > 25 µM (inactive); with DAPI (run 1) it was greater than 25 µM; with DAPI (run 2), greater than 25 µM.
As to `CCOc1ccc2nc(NC(=O)C3CCCN(S(=O)(=O)c4c(C)noc4C)C3)sc2c1` (stereo not drawn), the IC50 with TAG (mean of runs) is 5 µM; with TAG (run 1), 4.04 µM; with TAG (run 2) it was 5.97 µM. Moreover, the IC50 cytotoxicity (DAPI nuclear signal decrease) was > 25 µM (inactive) in the assay with DAPI (mean of runs), greater than 25 µM in the assay on DAPI (run 1) and greater than 25 µM in the assay on DAPI (run 2).
Regarding `Cc1cc(=O)oc2cc(NC(=O)c3cccc(Br)c3)ccc12`, the IC50 is > 25 µM (inactive) in the assay with TAG (mean of runs), greater than 25 µM in the assay on TAG (run 1) and greater than 25 µM in the assay with TAG (run 2). The IC50 cytotoxicity (DAPI nuclear signal decrease) in the assay on DAPI (mean of runs) is > 25 µM (inactive); in the assay on DAPI (run 1) it was greater than 25 µM; with DAPI (run 2), greater than 25 µM.
For `CCn1ncc(/C=N/N=C2\CCC3C4CCc5cc(O)ccc5C4CCC23C)c1C` (stereo not drawn), the IC50 in the assay with TAG (mean of runs) is > 25 µM (inactive); in the assay with TAG (run 1), greater than 25 µM; in the assay with TAG (run 2), greater than 25 µM. For the same molecule, the IC50 cytotoxicity (DAPI nuclear signal decrease) is > 25 µM (inactive) in the assay with DAPI (mean of runs), greater than 25 µM in the assay with DAPI (run 1) and greater than 25 µM in the assay on DAPI (run 2).
Take `S=C(N/N=C/c1cccs1)NC1CC2CCC1C2` (stereo not drawn): the IC50 with TAG (mean of runs) is 8.53 µM; in the assay on TAG (run 1) it was 4.71 µM; in the assay on TAG (run 2) it was 12.3 µM. Also, the IC50 cytotoxicity (DAPI nuclear signal decrease) was > 25 µM (inactive) in the assay with DAPI (mean of runs), greater than 25 µM in the assay with DAPI (run 1) and greater than 25 µM in the assay on DAPI (run 2).
For `COc1cc(C(CCN2CCCC(C)C2)c2c(OC)cc(OC)c3c(-c4ccccc4)cc(=O)oc23)cc(OC)c1OC` (stereo not drawn), the IC50 is 14.1 µM in the assay on TAG (mean of runs), 14.8 µM in the assay on TAG (run 1) and 13.5 µM in the assay with TAG (run 2). In addition, the IC50 cytotoxicity (DAPI nuclear signal decrease) with DAPI (mean of runs) was > 25 µM (inactive); with DAPI (run 1), greater than 25 µM; in the assay with DAPI (run 2), greater than 25 µM.
With `Nc1c(Cl)cc(-c2csc(N3CCCC3c3nc4cc(Cl)c(N5CCCCC5)cc4n3CCCO)n2)cc1Cl` (stereo not drawn), the IC50 is 3.56 µM in the assay on TAG (mean of runs), 2.87 µM in the assay with TAG (run 1) and 4.26 µM with TAG (run 2). Moreover, the results for the IC50 cytotoxicity (DAPI nuclear signal decrease) with DAPI (mean of runs), in the assay with DAPI (run 1) and in the assay on DAPI (run 2) were 15.6 µM (inactive), 14.5 µM and 16.6 µM, respectively.
Turning to `CCC(C)(C)NC(=O)C(c1cccn1C)N(Cc1ccc(OC)cc1)C(=O)Cn1nnc2ccccc21` (stereo not drawn), the IC50 in the assay with TAG (mean of runs) was > 25 µM (inactive); with TAG (run 1), greater than 25 µM; in the assay on TAG (run 2) it was greater than 25 µM. Further, the IC50 cytotoxicity (DAPI nuclear signal decrease) was > 25 µM (inactive) in the assay on DAPI (mean of runs), greater than 25 µM in the assay with DAPI (run 1) and greater than 25 µM with DAPI (run 2).
As to `CC(CC(=O)Nc1ccc2c(c1)c(=O)n(C)n2-c1ccc2ccccc2c1)C(F)(F)F` (stereo not drawn), the IC50 in the assay with TAG (mean of runs) was > 25 µM (inactive); with TAG (run 1), greater than 25 µM; in the assay with TAG (run 2) it was greater than 25 µM. The IC50 cytotoxicity (DAPI nuclear signal decrease) in the assay on DAPI (mean of runs) is > 25 µM (inactive); in the assay with DAPI (run 1), greater than 25 µM; in the assay on DAPI (run 2), greater than 25 µM.
In the case of `CCC[C@@H](CN[C@@H](CNC)[C@H](C)CC)NCC1CCC(C(C)(C)C)CC1` (stereo partly drawn), the IC50 in the assay on TAG (mean of runs) was > 25 µM (inactive); with TAG (run 1), greater than 25 µM; in the assay with TAG (run 2), greater than 25 µM. Besides, the IC50 cytotoxicity (DAPI nuclear signal decrease) is greater than 25 µM in the assay on DAPI (run 1) and 24 µM with DAPI (run 2).
